Read-outs that look alike come from different tables or passages of the source.
Tests used:
Primary human T-cells = assay: Primary Human T-Cell Proliferation Assay Stimulated with IL-2 (CellTiter-Glo); assay type: cell-based; settings: read-out: IC50, Example 42
From the text: The activity of the active compounds of the invention may further be characterized by assaying the effect of the 2,4-substituted pyrimidinediamine compounds described herein on the proliferative response of primary human T-cells. In this assay, primary human T-cells derived from peripheral blood and pre-activated through stimulation of the T-cell receptor and CD28, proliferate in culture in response to the cytokine Interleukin-2 (IL-2). This proliferative response is dependent on the activation of JAK1 and JAK3 tyrosine kinases, which phosphorylate and activate the transcription factor Stat-5. The primary human T-cells are incubated with the 2,4-substituted pyrimidinediamine compounds in the presence of IL-2 for 72 hours and at the assay endpoint intracellular ATP concentrations are measured to assess cell viability. A reduction in cell proliferation compared to control conditions is indicative of inhibition of the JAK kinase pathway. An exemplary assay of this type is described in greater detail in Example 42
Primary human T-cells derived from peripheral blood and pre-activated through stimulation of the T-cell receptor and CD28, proliferate in vitro in response to the cytokine Interleukin-2 (IL-2). This proliferative response is dependent on the activation of JAK-1 and JAK-3 tyrosine kinases, which phosphorylate and activate the transcription factor Stat-5.
Human primary T cells were prepared as follows. Whole blood was obtained from a healthy volunteer, mixed 1:1 with PBS, layered on to Ficoll Hypaque (Amersham Pharmacia Biotech, Piscataway, NJ, Catalog #17-1440-03) in 2:1 blood/PBS:ficoll ratio and centrifuged for 30 min at 4° C. at 1750 rpm. The lymphocytes at the serum: ficoll interface were recovered and washed twice with 5 volumes of PBS. The cells were resuspended in Yssel's medium (Gemini Bio-products, Woodland, CA, Catalog #400-103) containing 40 U/mL recombinant IL2 (R and D Systems, Minneapolis, MN, Catalog #202-IL (20 rig)) and seeded into a flask pre-coated with 1 μg/mL anti-CD3 (BD Pharmingen, San Diego, CA, Catalog #555336) and 5 μg/mL anti-CD28 (Immunotech, Beckman Coulter of Brea CA, Catalog #IM1376). The primary T-cells were stimulated for 3-4 days, then transferred to a fresh flask and maintained in RPMI with 10% FBS and 40 U/mL IL-2.
Primary T-cells were washed twice with PBS to remove the IL-2 and resuspended in Yssel's medium at 2×10^6 cells/mL. 50 μL of cell suspension containing 80 U/mL IL-2 was added to each well of a flat bottom 96 well black plate. For the unstimulated control, IL-2 was omitted from the last column on the plate. Compounds were serially diluted in dimethyl sulfoxide (DMSO, 99.7% pure, cell culture tested, Sigma-Aldrich, St. Louis, MO, Catalog No. D2650) from 5 mM in 3-fold dilutions, and then diluted 1:250 in Yssel's medium. 50 μL of 2× compound was added per well in duplicate and the cells were allowed to proliferate for 72 hours at 37° C.
Proliferation was measured using CellTiter-Glo® Luminescent Cell Viability Assay (Promega), which determines the number of viable cells in culture based on quantitation of the ATP present, as an indicator of metabolically active cells. The substrate was thawed and allowed to come to room temperature. After mixing the Cell Titer-Glo reagent and diluent together, 100 μL was added to each well. The plates were mixed on an orbital shaker for two minutes to induce lysis and incubated at room temperature for an additional ten minutes to allow the signal to equilibrate. Detection was performed using a Wallac Victor2 1420 multilabel counter purchased from Perkin Elmer, Shelton, CT The IC50 calculated based on the results of this assay are provided in TABLE XII.

[1] = system: IL-4 stimulated expression of CD23 in human Ramos B cells (JAK-1 and JAK-3); assay: Assay for Ramos B-Cell Line Stimulated with IL-4 (CD23 upregulation, FACS); assay type: cell-based; settings: read-out: IC50, Example 41
In short: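 Compound effect on IL-4-driven JAK1/JAK3 signalling is gauged as CD23 surface expression, measured by FACS after 20-24 h of stimulation with IL-4 at 50 units/mL final. A 1 h compound pre-treatment at 37 °C precedes stimulation, and IC50 is derived from the results.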

[2] = Homo sapiens, T-cell, primary human T-cells stimulated with IL-2, proliferation
[3] = Homo sapiens, Ramos, Ramos B cells stimulated with IL-4, CD23 expression by FACS
[4] = primary human T-cells stimulated with IL-2, proliferation
[5] = Ramos B cells stimulated with IL-4, CD23 expression by FACS
[6] = Homo sapiens, T-cell, primary human T-cell proliferation stimulated with IL-2
[7] = Homo sapiens, Ramos, Ramos B-cell line stimulated with IL-4, CD23 expression by FACS
[8] = primary human T-cell proliferation stimulated with IL-2
[9] = Ramos B-cell line stimulated with IL-4, CD23 expression by FACS

## COc1ccc(Nc2nc(Nc3ccc(S(N)(=O)=O)cc3)ncc2F)cc1Cl [VI-106, N2-(4-Aminosulfonylphenyl)-5-fluoro-N4-(4-methoxy-3-chlorophenyl]-2,4-pyrimidinediamine]
Primary human T-cells; [2]
  IC50: 1200 nM
[1]; [3]
  IC50: 62.2 nM

## Cc1ccc(Nc2ncc(F)c(Nc3ccc(Cl)c(C(F)(F)F)c3)n2)cc1S(N)(=O)=O [VI-39, N2-(3-Aminosulfonyl-4-methyl-phenyl)-N4-(4-chloro-3-trifluoromethylphenyl)-5-fluoro-2,4-pyrimidinediamine]
Primary human T-cells; [2]
  IC50: 3140 nM
[1]; [3]
  IC50: 401 nM

## NS(=O)(=O)c1cccc(Nc2ncc(F)c(Nc3cccc4ncccc34)n2)c1 [VII-68, N2-(3-Aminosulfonylphenyl)-5-fluoro-N4-(quinolin-5-yl)-2,4-pyrimidinediamine]
Primary human T-cells; [2]
  IC50: 1300 nM
[1]; [3]
  IC50: 812 nM

## COC(=O)c1ccc(Nc2nc(Nc3ccc(S(N)(=O)=O)cc3)ncc2F)s1 [IX-49, N2-(4-Aminosulfonylphenyl)-5-fluoro-N4-(5-methoxycarbonyl-thiophene-2-yl)-2,4-pyrimidinediamine]
Primary human T-cells; [2]
  IC50: 61900 nM
[1]; [3]
  IC50: 96.5 nM

## C#CCN(CC#C)c1ccc(Nc2nc(Nc3ccc(C)c(S(N)(=O)=O)c3)ncc2F)cc1 [VI-67, N2-(3-Aminosulfonyl-4-methylphenyl)-N4-{4-[bis(prop-2-ynyl)amino]phenyl}-5-fluoro-2,4-pyrimidinediamine]
Primary human T-cells; [2]
  IC50: 718 nM
[1]; [3]
  IC50: 147 nM

## CN(C)S(=O)(=O)c1cccc(Nc2nc(Nc3cccc(S(N)(=O)=O)c3)ncc2F)c1 [IV-9, N2-(3-Aminosulfonylphenyl)-5-fluoro-N4-[3-(N,N-dimethylaminosulfonyl)phenyl]-2,4-pyrimidinediamine]
Primary human T-cells; [2]
  IC50: 1000 nM
[1]; [3]
  IC50: 190 nM

## N2-(3-Aminosulfonyl-4-methoxy-5-methylphenyl)-N4-(4-chloro-3-trifluoromethyl-phenyl)-5-fluoro-2,4-pyrimidinediamine [VI-40]
Primary human T-cells; [4]
  IC50: 1240 nM
[1]; [5]
  IC50: 288 nM

## COc1ccc(Nc2nc(Nc3cccc(S(N)(=O)=O)c3)ncc2F)nc1N [VII-7, N2-(3-Aminosulfonylphenyl)-N4-(2-amino-3-methoxypyrid-6-yl)-5-fluoro-2,4-pyrimidinediamine]
Primary human T-cells; [2]
  IC50: 3920 nM
[1]; [3]
  IC50: 502 nM

## NS(=O)(=O)c1cccc(Nc2ncc(F)c(Nc3cccc4cccnc34)n2)c1 [VII-78, N2-(3-Aminosulfonylphenyl)-5-fluoro-N4-(quinolin-8-yl)-2,4-pyrimidinediamine]
Primary human T-cells; [2]
  IC50: 682 nM
[1]; [3]
  IC50: 85.8 nM

## NC(=O)OCCc1ccc(Nc2nc(Nc3ccc(Cl)c(S(N)(=O)=O)c3)ncc2F)cc1 [III-55, N4-{4-[2-(Aminocarbonyloxy)ethyl]phenyl}-N2-(3-aminosulfonyl-4-chlorophenyl)-5-fluoro-2,4-pyrimidinediamine]
Primary human T-cells; [6]
  IC50: 973 nM
[1]; [7]
  IC50: 144 nM

## Cc1nccn1Cc1ccc(Nc2nc(Nc3cccc(S(N)(=O)=O)c3)ncc2F)cc1 [III-94, N2-(3-Aminosulfonylphenyl)-5-fluoro-N4-[4-(2-methyl-1-imidazolylmethyl)phenyl]-2,4-pyrimidinediamine]
Primary human T-cells; [4]
  IC50: 716 nM
[1]; [5]
  IC50: 162 nM

## Cc1cc(Nc2nc(Nc3cccc(S(N)(=O)=O)c3)ncc2F)ccc1NC(=O)CC#N [Compound I-80, N2-(3-Aminosulfonylphenyl)-5-fluoroN4-[3-methyl-4-(N-cyanoacetyl)aminophneyl]-2,4-pyrimidinediamine]
Primary human T-cells; [8]
  IC50: 470 nM
[1]; [9]
  IC50: 365 nM

## N#CCOc1cccc(Nc2nc(Nc3ccc(S(N)(=O)=O)cc3)ncc2F)c1 [Compound I-3, N2-(4-Aminosulfonyl)phenyl-N4-(3-cyanomethoxy)phenyl-5-fluoro-2,4-pyrimidinediamine]
Primary human T-cells; [8]
  IC50: 987 nM
[1]; [9]
  IC50: 107 nM

## Cc1noc(COc2cccc(Nc3nc(Nc4ccc(S(N)(=O)=O)cc4)ncc3F)c2)n1 [Compound I-253, N2-(4-Aminosulfonylphenyl)-5-fluoro-N4-[3-(3-methyl-1,2,4-oxadiazol-5-yl)methyleneoxyphenyl]-2,4-pyrimidinediamine]
Primary human T-cells; [8]
  IC50: 2560 nM
[1]; [9]
  IC50: 127 nM

## CNS(=O)(=O)c1cc(Nc2ncc(F)c(Nc3ccc(Cn4ccnn4)cc3)n2)ccc1C [III-98, 5-Fluoro-N2-[3-(N-methylaminosulfony)-4-methylphenyl]-N4-{4-[1-(1,2,3-thazolyl)methyl]phenyl}-2,4-pyrimidinediamine]
Primary human T-cells; [4]
  IC50: 457 nM
[1]; [5]
  IC50: 117 nM

## N#CCCc1ccc(Nc2nc(Nc3ccc(Cl)c(S(N)(=O)=O)c3)ncc2F)cc1 [III-13, N2-(3-Aminosulfonyl-4-chlorophenyl)-N4-[4-(2-cyanoethyl)phenyl]-5-fluoro-2,4-pyrimidinediamine]
Primary human T-cells; [6]
  IC50: 701 nM
[1]; [7]
  IC50: 295 nM

## Cc1cc(COc2ccc(Nc3nc(Nc4ccc(Cl)c(S(N)(=O)=O)c4)ncc3F)cc2)no1 [Compound I-220, N2-(3-Aminosulfonyl-4-chlorophenyl)-5-fluoro-N4-[4-(5-methylisoxazol-3-yl)methyleneoxyphenyl]-2,4-pyrimidinediamine]
Primary human T-cells; [8]
  IC50: 1070 nM
[1]; [9]
  IC50: 121 nM

## COc1cc(Nc2ncc(F)c(Nc3ccc(OC(C)(C)C#N)cc3)n2)ccc1S(N)(=O)=O [Compound I-77, N2-(4-Aminosulfonyl-3-methoxy)phenyl-N4-[4-(1-cyano-1-methyl)ethoxy]phenyl-5-fluoro-2,4-pyrimidinediamine]
Primary human T-cells; [8]
  IC50: 1620 nM
[1]; [9]
  IC50: 147 nM

## Cc1ccc(Nc2ncc(F)c(Nc3ccc(CNC(N)=O)cc3)n2)cc1S(N)(=O)=O [III-34, N4-(4-Aminocarbonylaminomethylphenyl)-N2-(3-aminosulfonyl-4-methylphenyl)-5-fluoro-2,4-pyrimidinediamine]
Primary human T-cells; [6]
  IC50: 381 nM
[1]; [7]
  IC50: 473 nM

## COc1c(C)cc(Nc2ncc(F)c(N[C@H]3[C@@H](C(N)=O)[C@@H]4C=C[C@H]3C4)n2)cc1S(N)(=O)=O [VII-83, (1R,2R,3S,4S)N2-(3-Aminosulfonyl-4-methoxy-5-methylphenyl)-N4-(3-aminocarbonylbicyclo[2.2.1]hept-5-ene-2-yl)-5-fluoro-2,4-pyrimidinediamine]
Primary human T-cells; [2]
  IC50: 937 nM
[1]; [3]
  IC50: 77.5 nM

## NS(=O)(=O)c1cccc(Nc2ncc(F)c(Nc3ccc(-c4ccccn4)c(OCF)c3)n2)c1 [Compound I-169, N2-(3-Aminosulfonylphenyl)-5-fluoro-N4-[4-(2-pyridinyl)-3-fluoromethyleneoxyphenyl]-2,4-pyrimidinediamine]
Primary human T-cells; [8]
  IC50: 137 nM
[1]; [9]
  IC50: 54.6 nM

## Cc1cc(Nc2nc(Nc3ccc(S(C)(=O)=O)c(N)c3)ncc2F)ccc1OCc1ccccn1 [Compound I-168, N2-(3-Amino-4-methylsulfonylphenyl)-5-fluoro-N4-[(4-((pyridin-2-yl)methoxy)-3-methylphenyl)]-2,4-pyrimidinediamine]
Primary human T-cells; [6]
  IC50: 1180 nM
[1]; [7]
  IC50: 154 nM

## CC(C)(C)c1ccc(Nc2nc(Nc3cccc(S(N)(=O)=O)c3)ncc2F)cc1 [VI-35, N2-(3-Aminosulfonylphenyl)-N4-(4-tert-butylphenyl)-5-fluoro-2,4-pyrimidinediamine]
Primary human T-cells; [2]
  IC50: 1260 nM
[1]; [3]
  IC50: 158 nM

Reference: patent US11827628B2, “Compositions and methods for inhibition of the JAK pathway” (Rigel Pharmaceuticals, Inc., priority 2005, dated 2023)
